Results taken from ChEMBL document CHEMBL3352087 (J Med Chem, 2014).

Assays:
[1] = Systemic clearance in CD-1 mouse at 3 mg/kg, iv and 10 mg/kg, po; type: ADME, organism-based; conditions: in vivo, read-out: CLH
Plasma [2] = experiment: Free plasma concentration in CD-1 mouse at 3 mg/kg, iv and 10 mg/kg, po measured at 1 hr post dose; type: ADME, organism-based; conditions: in vivo
Mus musculus = experiment: Unbound clearance in CD-1 mouse at 3 mg/kg, iv and 10 mg/kg, po; type: ADME, organism-based; conditions: in vivo
Brain [3] = experiment: Free drug level in CD-1 mouse brain at 3 mg/kg, iv and 10 mg/kg, po measured at 4 hrs post dose; type: ADME, organism-based; conditions: in vivo
Plasma [4] = experiment: Free plasma concentration in CD-1 mouse at 3 mg/kg, iv and 10 mg/kg, po measured at 4 hrs post dose; type: ADME, organism-based; conditions: in vivo
Brain [5] = experiment: Free drug level in CD-1 mouse brain at 3 mg/kg, iv and 10 mg/kg, po measured at 1 hr post dose; type: ADME, organism-based; conditions: in vivo
Beta-secretase 1 [6] = biological target: T1, Beta-secretase 1 (Homo sapiens, UniProt P56817); experiment: Inhibition of BACE1 in HEK293 cells expressing swedish double mutant APP assessed as amyloid beta (1 to 40) peptide level after 7 hrs by HTRF assay; type: cell-based
T1 sequence (P56817 whole entry): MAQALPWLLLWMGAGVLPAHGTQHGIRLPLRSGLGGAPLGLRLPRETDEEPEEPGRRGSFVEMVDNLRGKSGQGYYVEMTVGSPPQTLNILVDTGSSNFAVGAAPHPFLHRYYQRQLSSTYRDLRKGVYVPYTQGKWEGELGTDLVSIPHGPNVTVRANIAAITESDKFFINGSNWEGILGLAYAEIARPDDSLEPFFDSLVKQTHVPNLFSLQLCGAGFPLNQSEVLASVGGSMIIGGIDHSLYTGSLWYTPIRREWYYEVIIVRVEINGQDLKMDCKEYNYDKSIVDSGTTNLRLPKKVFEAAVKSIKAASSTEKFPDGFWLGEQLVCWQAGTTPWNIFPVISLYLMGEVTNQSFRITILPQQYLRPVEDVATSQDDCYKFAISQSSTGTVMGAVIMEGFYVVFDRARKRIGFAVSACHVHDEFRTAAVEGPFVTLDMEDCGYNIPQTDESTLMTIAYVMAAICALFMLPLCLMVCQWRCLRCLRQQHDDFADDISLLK

Beta-secretase 1 [7] = biological target: T1, Beta-secretase 1; experiment: Inhibition of purified recombinant human BACE1 expressed in CHO cells assessed as uncleaved biotinylated sAPP after 2 hrs by HTRF assay
MDR1 (human) [8] = experiment: Apparent permeability from apical to basolateral side in pig LLC-PK1 cells transfected with human MDR1; type: ADME, cell-based, Sus scrofa; conditions: LLC-PK1
CHO = experiment: Ratio of IC50 for cathepsin D purified from human spleen to IC50 for purified recombinant human BACE1 expressed in CHO cells
MDR1 (human) [9] = experiment: Efflux ratio of permeability from basolateral to apical side to apical to basolateral side in pig LLC-PK1 cells transfected with human MDR1 at 1 uM; type: ADME, cell-based, Sus scrofa; conditions: LLC-PK1
[10] = Ratio of free drug level in brain of CD-1 mouse at 3 mg/kg, iv and 10 mg/kg, po measured at 4 hrs post dose to IC50 for BACE1 in HEK293 cells expressing swedish double mutant APP; type: ADME, organism-based; conditions: hek293, 4 h
[11] = Fraction unbound in CD-1 mouse plasma; type: ADME, cell-free
[12] = Fraction unbound in CD-1 mouse brain; type: ADME, tissue-based
[13] = Ratio of free drug level in brain of CD-1 mouse at 3 mg/kg, iv and 10 mg/kg, po measured at 1 hr post dose to IC50 for BACE1 in HEK293 cells expressing swedish double mutant APP; type: ADME, organism-based; conditions: hek293, 1 h
[14] = Ratio of free drug level in brain to plasma of CD-1 mouse brain at 3 mg/kg, iv and 10 mg/kg, po measured at 4 hrs post dose; type: ADME, organism-based; conditions: read-out: BPR
[15] = Ratio of free drug level in brain to plasma of CD-1 mouse at 3 mg/kg, iv and 10 mg/kg, po measured at 1 hr post dose; type: ADME, organism-based; conditions: read-out: BPR

SMILES | clearance [1] | Cp(f) (Plasma [2]) | CL free (Mus musculus) | Drug uptake (Brain [3]) | Cp(f) (Plasma [4]) | Drug uptake (Brain [5]) | IC50 (Beta-secretase 1 [6]) | IC50 (Beta-secretase 1 [7]) | Papp A→B (MDR1 (human) [8]) | Ratio IC50 (CHO) | efflux ratio at 1 µM (MDR1 (human) [9]) | Ratio [10] | fraction unbound [11] | fraction unbound [12] | Ratio [13] | Kp uu at 4 h [14] | Kp uu at 1 h [15]
CN1C(=O)[C@]2(N=C1N)c1cc(-c3cccnc3F)ccc1O[C@H]1CCOC[C@@H]12 | 70 mL/min/kg | 320 nM | 330 mL/min/kg | 8.4 nM | 75 nM | 11 nM |  |  |  |  |  |  |  |  |  |  | 
NC1=N[C@@]2(CO1)c1cc(-c3cccnc3F)ccc1O[C@@H]1CCCO[C@H]12 |  |  |  |  |  |  | 759 nM | 1100 nM |  |  |  |  |  |  |  |  | 
NC1=N[C@@]2(CS1)c1cc(-c3cccnc3F)ccc1O[C@@H]1CCCO[C@H]12 |  |  |  |  |  |  | 550 nM | 810 nM | 37 ×10⁻⁶ cm/s | > 250 | 1.2 |  |  |  |  |  | 
C[C@]12CCCO[C@@H]1[C@]1(COC(N)=N1)c1cc(-c3cccc(C#N)c3)ccc1O2 |  |  |  |  |  |  |  |  |  | 1300 |  |  |  |  |  |  | 
C[C@]12CCCO[C@@H]1[C@]1(COC(N)=N1)c1cc(-c3cncc(Cl)c3)ccc1O2 (racemic) |  |  |  |  |  |  | 37 nM | 52 nM | 25 ×10⁻⁶ cm/s | 2100 | 7.1 |  |  |  |  |  | 
C[C@]12CCCO[C@@H]1[C@]1(COC(N)=N1)c1cc(-c3cccc(C#N)c3)ccc1O2 (racemic) [listing 1 of 2 here] | 34 mL/min/kg | 54 nM | 870 mL/min/kg | 7.5 nM | 35 nM | 13 nM | 100 nM | 98 nM | 30 ×10⁻⁶ cm/s |  | 3.2 | 0.075 | 0.039 | 0.013 | 0.13 | 0.21 | 0.24
C[C@]12CCCO[C@@H]1[C@]1(COC(N)=N1)c1cc(-c3cccc(C#N)c3)ccc1O2 (racemic) [listing 2 of 2 here] |  |  |  |  |  |  |  |  |  | 840 |  |  |  |  |  |  | 
CN1C(=O)[C@]2(N=C1N)c1cc(-c3cccnc3F)ccc1O[C@H]1CCCO[C@@H]12 (relative stereo) | 110 mL/min/kg | 120 nM | 600 mL/min/kg | 1.6 nM | 36 nM | 1.7 nM | 12 nM | 48 nM | 6.8 ×10⁻⁶ cm/s | 50 | 31 | 0.13 | 0.18 | 0.037 | 0.14 | 0.044 | 0.014
CN1C(=O)[C@]2(N=C1N)c1cc(-c3cccnc3F)ccc1O[C@@H]1CCCO[C@H]12 (relative stereo) |  |  |  |  |  |  | 1900 nM | 700 nM |  | 19 |  |  |  |  |  |  | 
CN1C(=O)[C@]2(N=C1N)c1cc(-c3cccnc3F)ccc1O[C@@]1(C)CCCO[C@@H]12 (relative stereo) |  |  |  |  |  |  | 5.7 nM | 13 nM | 5.3 ×10⁻⁶ cm/s | 510 | 110 |  |  |  |  |  | 
CN1C(=O)[C@]2(N=C1N)c1cc(-c3cccnc3F)ccc1O[C@]1(C)CCCO[C@H]12 (relative stereo) |  |  |  |  |  |  | 37 nM | 26 nM | 6 ×10⁻⁶ cm/s | 69 | 31 |  |  |  |  |  | 
C[C@]12CCCO[C@@H]1[C@]1(COC(N)=N1)c1cc(-c3cccnc3F)ccc1O2 (relative stereo) | 150 mL/min/kg | 37 nM | 1300 mL/min/kg | 1.1 nM | 6.8 nM | 6 nM | 60 nM | 76 nM | 29 ×10⁻⁶ cm/s | 430 | 6.2 | 0.018 | 0.11 | 0.04 | 0.1 | 0.16 | 0.16
C[C@@]12CCCO[C@H]1[C@]1(COC(N)=N1)c1cc(-c3cccnc3F)ccc1O2 (relative stereo) |  |  |  |  |  |  | 130 nM | 210 nM | 33 ×10⁻⁶ cm/s | 48 | 4.8 |  |  |  |  |  | 
C[C@]12CCCO[C@@H]1[C@]1(CSC(N)=N1)c1cc(-c3cccnc3F)ccc1O2 (relative stereo) |  |  |  |  |  |  | 86 nM | 27 nM | 31 ×10⁻⁶ cm/s | 890 | 2 |  |  |  |  |  | 
C[C@]12CCCO[C@@H]1[C@]1(CSC(N)=N1)c1cc(-c3cncc(Cl)c3)ccc1O2 (relative stereo) |  |  |  |  |  |  | 48 nM | 51 nM | 12 ×10⁻⁶ cm/s | 1100 | 3.3 |  |  |  |  |  | 
C[C@]12CCCO[C@@H]1[C@]1(COC(N)=N1)c1cc(-c3cc(F)cc(Cl)c3)ccc1O2 (relative stereo) |  |  |  |  |  |  | 93 nM | 55 nM | 5.6 ×10⁻⁶ cm/s | 530 | 1.7 |  |  |  |  |  | 
C[C@]12CCCO[C@@H]1[C@]1(CSC(N)=N1)c1cc(-c3cc(F)cc(Cl)c3)ccc1O2 (relative stereo) |  |  |  |  |  |  | 110 nM | 41 nM | 1.4 ×10⁻⁶ cm/s | 830 | 1.2 |  |  |  |  |  | 
C[C@]12CCCO[C@@H]1[C@]1(CSC(N)=N1)c1cc(-c3cccc(C#N)c3)ccc1O2 (relative stereo) |  |  |  |  |  |  | 140 nM | 41 nM | 14 ×10⁻⁶ cm/s | 680 | 1.8 |  |  |  |  |  | 
C[C@]12CCCO[C@@H]1[C@]1(CSC(N)=N1)c1cc(-c3cncnc3)ccc1O2 (relative stereo) |  |  |  |  |  |  | 81 nM | 56 nM | 29 ×10⁻⁶ cm/s | 1100 | 3.1 |  |  |  |  |  | 
C[C@]12CCCO[C@@H]1[C@]1(COC(N)=N1)c1cc(-c3cncnc3)ccc1O2 (single isomer, unassigned) |  |  |  |  |  |  | 56 nM | 89 nM | 23 ×10⁻⁶ cm/s | > 2200 | 9.8 |  |  |  |  |  | 
